Measurements published in ChEMBL document CHEMBL3885881, “DrugMatrix”.

Species: Rattus norvegicus
Experiment: DrugMatrix - Regimen: Daily Repeat
Assay type: toxicity, organism-based, Sprague-Dawley
Design: regimen Daily Repeat, gender Male, age 6-8 weeks
Settings: in vivo, po, route oral GAVAGE, […]; for ABSOLUTE BASOPHIL / ABSOLUTE EOSINOPHIL / ABSOLUTE LYMPHOCYTE / ABSOLUTE MONOCYTE / ABSOLUTE SEGMENTED NEUTROPHIL / BASOPHIL / EOSINOPHIL / ERYTHROCYTE COUNT / HEMATOCRIT / HEMOGLOBIN / LEUKOCYTE COUNT / LYMPHOCYTE / MEAN CORPUSCULAR HEMOGLOBIN / MEAN CORPUSCULAR HEMOGLOBIN CONCENTRATION / MEAN CORPUSCULAR VOLUME / MONOCYTE / NEUTROPHIL / NUCLEATED RED BLOOD CELLS / PLATELET COUNT: tissue Blood; for ALANINE AMINOTRANSFERASE / ALBUMIN / ALKALINE PHOSPHATASE / ASPARTATE AMINOTRANSFERASE / BLOOD UREA NITROGEN / CARBON DIOXIDE / CHLORIDE / CHOLESTEROL / CREATINE PHOSPHOKINASE / CREATININE / GLUCOSE / LACTATE DEHYDROGENASE / LIPASE / PHOSPHORUS / POTASSIUM / SODIUM / TOTAL BILIRUBIN / TOTAL PROTEIN / URIC ACID: tissue Plasma
[1] = 50 mg/kg, 120 h, dose level Low, time 5 day
[2] = 175 mg/kg, 72 h, dose level High, time 3 day
[3] = 175 mg/kg, 120 h, dose level High, time 5 day

Oc1ncnc2[nH]ncc12 [ALLOPURINOL]
ABSOLUTE BASOPHIL [1]: 0 CELLS/uL | ABSOLUTE EOSINOPHIL [1]: 49 CELLS/uL | ABSOLUTE LYMPHOCYTE [1]: 17802 CELLS/uL | ABSOLUTE MONOCYTE [1]: 49 CELLS/uL | ABSOLUTE SEGMENTED NEUTROPHIL [1]: 1133.33 CELLS/uL | BASOPHIL [1]: 0% | EOSINOPHIL [1]: 0.33% | ERYTHROCYTE COUNT [1]: 5.63 x10E6/uL | HEMATOCRIT [1]: 35.03% | HEMOGLOBIN [1]: 13.73 G/DL | LEUKOCYTE COUNT [1]: 19.03 x10E3/uL | LYMPHOCYTE [1]: 93% | MEAN CORPUSCULAR HEMOGLOBIN [1]: 24.47 pg | MEAN CORPUSCULAR HEMOGLOBIN CONCENTRATION [1]: 39.27 G/DL | MEAN CORPUSCULAR VOLUME [1]: 62.33 fL | MONOCYTE [1]: 0.33% | NEUTROPHIL [1]: 6.33% | NUCLEATED RED BLOOD CELLS [1]: 0 /100WBC | PLATELET COUNT [1]: 1236.33 x10E3/uL | ALANINE AMINOTRANSFERASE [1]: 56.33 u/L | ALBUMIN [1]: 3.97 G/DL | ALKALINE PHOSPHATASE [1]: 308 u/L | ASPARTATE AMINOTRANSFERASE [1]: 104 u/L | BLOOD UREA NITROGEN [1]: 20 mg/dL | CARBON DIOXIDE [1]: 27 mmol/L | CHLORIDE [1]: 100 MEQ/L | CHOLESTEROL [1]: 65.33 mg/dL | CREATINE PHOSPHOKINASE [1]: 626 u/L | CREATININE [1]: 0.41 mg/dL | GLUCOSE [1]: 169.33 mg/dL | LACTATE DEHYDROGENASE [1]: 263.33 u/L | LIPASE [1]: 10 u/L | PHOSPHORUS [1]: 9.7 mg/dL | POTASSIUM [1]: 5.66 MEQ/L | SODIUM [1]: 141.17 MEQ/L | TOTAL BILIRUBIN [1]: 0.2 mg/dL | TOTAL PROTEIN [1]: 5.6 G/DL | URIC ACID [1]: 0.83 mg/dL | ABSOLUTE BASOPHIL [2]: 0 CELLS/uL | ABSOLUTE EOSINOPHIL [2]: 0 CELLS/uL | ABSOLUTE LYMPHOCYTE [2]: 8294 CELLS/uL | ABSOLUTE MONOCYTE [2]: 350.5 CELLS/uL | ABSOLUTE SEGMENTED NEUTROPHIL [2]: 4205.5 CELLS/uL | BASOPHIL [2]: 0% | EOSINOPHIL [2]: 0% | ERYTHROCYTE COUNT [2]: 5.27 x10E6/uL | HEMATOCRIT [2]: 32.2% | HEMOGLOBIN [2]: 12.95 G/DL | LEUKOCYTE COUNT [2]: 12.85 x10E3/uL | LYMPHOCYTE [2]: 64% | MEAN CORPUSCULAR HEMOGLOBIN [2]: 24.55 pg | MEAN CORPUSCULAR HEMOGLOBIN CONCENTRATION [2]: 40.3 G/DL | MEAN CORPUSCULAR VOLUME [2]: 61.1 fL | MONOCYTE [2]: 3% | NEUTROPHIL [2]: 33% | NUCLEATED RED BLOOD CELLS [2]: 0 /100WBC | PLATELET COUNT [2]: 1127 x10E3/uL | ALANINE AMINOTRANSFERASE [2]: 101 u/L | ALBUMIN [2]: 3.9 G/DL | ALKALINE PHOSPHATASE [2]: 397.5 u/L | ASPARTATE AMINOTRANSFERASE [2]: 153.5 u/L | BLOOD UREA NITROGEN [2]: 113.5 mg/dL | CARBON DIOXIDE [2]: 24.5 mmol/L | CHLORIDE [2]: 93 MEQ/L | CHOLESTEROL [2]: 99 mg/dL | CREATINE PHOSPHOKINASE [2]: 283.5 u/L | CREATININE [2]: 3.31 mg/dL | GLUCOSE [2]: 154.5 mg/dL | LACTATE DEHYDROGENASE [2]: 217.5 u/L | LIPASE [2]: 12 u/L | PHOSPHORUS [2]: 16.65 mg/dL | POTASSIUM [2]: 6.46 MEQ/L | SODIUM [2]: 141.2 MEQ/L | TOTAL BILIRUBIN [2]: 0.35 mg/dL | TOTAL PROTEIN [2]: 6.55 G/DL | URIC ACID [2]: 0.2 mg/dL | ABSOLUTE BASOPHIL [3]: 0 CELLS/uL | ABSOLUTE EOSINOPHIL [3]: 81.33 CELLS/uL | ABSOLUTE LYMPHOCYTE [3]: 15570.33 CELLS/uL | ABSOLUTE MONOCYTE [3]: 599.67 CELLS/uL | ABSOLUTE SEGMENTED NEUTROPHIL [3]: 6148.67 CELLS/uL | BASOPHIL [3]: 0% | EOSINOPHIL [3]: 0.33% | ERYTHROCYTE COUNT [3]: 5.7 x10E6/uL | HEMATOCRIT [3]: 35.5% | HEMOGLOBIN [3]: 13.77 G/DL | LEUKOCYTE COUNT [3]: 22.4 x10E3/uL | LYMPHOCYTE [3]: 69.33% | MEAN CORPUSCULAR HEMOGLOBIN [3]: 24.17 pg | MEAN CORPUSCULAR HEMOGLOBIN CONCENTRATION [3]: 38.8 G/DL | MEAN CORPUSCULAR VOLUME [3]: 62.27 fL | MONOCYTE [3]: 2.67% | NEUTROPHIL [3]: 27.67% | NUCLEATED RED BLOOD CELLS [3]: 0 /100WBC | PLATELET COUNT [3]: 1373 x10E3/uL | ALANINE AMINOTRANSFERASE [3]: 78.67 u/L | ALBUMIN [3]: 3.73 G/DL | ALKALINE PHOSPHATASE [3]: 409 u/L | ASPARTATE AMINOTRANSFERASE [3]: 102 u/L | BLOOD UREA NITROGEN [3]: 46.33 mg/dL | CARBON DIOXIDE [3]: 26.33 mmol/L | CHLORIDE [3]: 105.33 MEQ/L | CHOLESTEROL [3]: 83.67 mg/dL | CREATINE PHOSPHOKINASE [3]: 242.33 u/L | CREATININE [3]: 1.36 mg/dL | GLUCOSE [3]: 145 mg/dL | LACTATE DEHYDROGENASE [3]: 182.33 u/L | LIPASE [3]: 10.33 u/L | PHOSPHORUS [3]: 7.7 mg/dL | POTASSIUM [3]: 6.87 MEQ/L | SODIUM [3]: 149 MEQ/L | TOTAL BILIRUBIN [3]: 0.2 mg/dL | TOTAL PROTEIN [3]: 5.87 G/DL | URIC ACID [3]: 0.2 mg/dL
